Measurements: patent US20240197749A1, “METHOD OF INHIBITING LIPOGENESIS WITH UBIQUITIN-SPECIFIC PEPTIDASE 24 INHIBITOR COMPOSITION” (NATIONAL CHENG KUNG UNIVERSITY, priority 2022, published 2024)
Each block holds one compound with its values, some of them ahead of it.

What was measured:
USP24 [1] = target: T1, USP24 (Homo sapiens, UniProt Q9UPU5); details: known; cited from earlier work
CREB = CREB and its phosphorylation during 3T3-L1 differentiation; assay type: cell-based, mouse
USP24-WT mice = assay: liver tissue section H&E staining after normal diet or high-fat diet and USP24 inhibitor; assay type: in vivo; details: USP24 inhibitor oral 2 months
From the text: (§1) Animal-related experiments had been reviewed and approved by the Institutional Animal Care and Use Committee (IACUC) of National Cheng Kung University (NCKU). These genetically modified mice were generated at the National Laboratory Animal Center (NLAC) in Tainan, Taiwan. After breeding, 2 months-old wild-type mice and genetically modified mice were used to study lipogenesis progress. The cages provided adequate space, and the population density allowed the animals to move freely. The provided feed was sufficient for the normal growth and maintenance of regular body weight in both wild-type and genetically modified mice. Genetically modified mice had access to fresh, uncontaminated drinking water. Genetically modified mice were observed and cared for at least 2 to 3 times a week. All animal-related procedures were conducted in accordance with relevant guidelines and regulations.
It was known that USP24 inhibitor (USP24-i1, NCI677397, Formula I-3-3) could block USP24 catalytic activity, delaying or reversing cancer drug resistance.

HFD mice [2] = assay: treatment of HFD mice after obesity: body weight, visceral fat, fatty liver, eWAT and iWAT; assay type: in vivo
From the text: (§2) In the previous studies of the inventors, USP24-i-101 treated (i.p.) the HFD mice from the initiation of the experiment. […] In this Example, USP24-i-101 treated the mice after obesity, not from initiation. Mice were fed with HFD for two months and then treated with USP24-i-101 one month (two times per week, i.p.).
In addition, USP24-i-101 could inhibit eWAT and iWAT of mice. The subcutaneous fat and visceral fat (around organs such as kidney and reproductive organs) were collected to analyze the size of the epididymal WAT [eWAT, as shown in FIG. 11D (a), upper panel of FIG. 11D(c) and upper panel of FIG. 11D(d)] and inguial WAT [iWAT, as shown in FIG. 11D(b), lower panel of FIG. 11D(c) and lower panel of FIG. 11D(d)].

[3] = test system: differentiated 3T3-L1 cells; assay: Western blotting of proteins associated with adipocyte formation in 3T3-L1 cells; assay type: cell-based, mouse; details: Western blot, vs DMSO
Experimental: (§3) Commercially available mouse fibroblast cell line 3T3-L1 was cultured in commercially available Dulbecco's Modified Eagle Medium (DMEM) containing 10% fetal bovine serum (FBS), 100 μg/mL streptomycin, and 100 U/ml penicillin G sodium salt. All cell cultures were maintained at 37° C. with 5% CO2.
(§4) Please referred to FIG. 6A, which illustrated the experimental procedure for evaluating the effects of USP24 inhibitor on the induction of 3T3-L1 cells into adipocytes according to an embodiment of the present invention. When 3T3-L1 cells reached approximately 70% confluence, the MDIR induction medium containing USP24 inhibitor (5 μM or 10 μM) was added to the cells on day 0 and cultured for 2 days. Subsequently, on day 2, the induction medium was replaced with fresh medium containing USP24 inhibitor (5 μM or 10 μM) and insulin (10 μg/mL), and the cells were cultured for an additional 2 days. Next, the culture medium was changed the fresh medium containing USP24 inhibitor on day 4, and the cells were cultured for 4-6 more days, allowing 3T3-L1 cells to differentiate into adipocytes or adipocyte-like cells. And then, the cells were stained with Oil-Red-O (on days 8-10) to assess the influence of USP24 inhibitor on adipocyte formation, as shown in FIGS. 6B and 6C.
The MDIR induction medium included 0.5 mM 3-isobutyl-1-methylxanthine (IBMX), 1 μM dexamethasone (D), […] insulin (I), and 1 μM rosiglitazone (R) in Dulbecco's Modified Eagle Medium (DMEM). The components M, D, R, and USP24 inhibitor were dissolved in dimethyl sulfoxide (DMSO) and then added to DMEM. The insulin culture medium contained 10 μg/mL insulin in DMEM, and the fresh medium included 10% fetal bovine serum (FBS) in DMEM.
It was known that PPAR-γ and PLIN1 were important markers for adipocytes. In this embodiment, commercially available antibodies were used to perform Western blotting on 3T3-L1 cells to evaluate the expression levels of proteins associated with adipocyte formation in response to USP24-i-a treatment, as shown in FIGS. 7A to 7G.

USP24 [4] = target: T1, USP24; assay: inhibition of USP24 activity; assay type: biochemical; details: in comparison to USP24-i1; not shown in the figures
HFD mice [5] = assay: treatment of HFD mice from the initiation of the experiment (previous studies of the inventors); assay type: in vivo; details: HFD mice treated i.p. from the initiation of the experiment
From the text: as §2

USP24-WT HFD mice = assay: Oil-Red-O staining assay of liver tissue sections (hepatic lipid accumulation); assay type: in vivo; details: i.p. 10 mg/kg once a week for two consecutive months
From the text: as §1
In this embodiment, the analysis of hepatic lipid accumulation and distribution were performed using the Oil-Red-O staining assay. […] The USP24 inhibitor was administered by intraperitoneal injection (i.p.) at a dose of 10 mg/kg once a week for two consecutive months. Statistical analysis was conducted using a t-test, where * indicates p<0.01, and ** indicates p<0.005 (FIG. 5B).

HFD-mice = assay: serum tests / safety assay by ELISA in ND and HFD mice; assay type: in vivo; details: serum of HFD mice; i.p. 10 mg/kg once a week for two months
Experimental: As shown in FIGS. 10A to 10H, serum were collected from normal diet (ND) and high fat diet (HFD) mice with or without USP24-i-101 treatment to study the safety assay by ELISA assay.
In this Example, wild-type mice were fed a normal diet (ND) or a high-fat diet (HFD), and they were injected intraperitoneally (i.p.) with 10 mg/kg of USP24-i once a week for two consecutive months. Subsequently, mouse sera were collected, and serum-related indices were examined to assess the impact of USP24-i on lipogenesis and liver function, as depicted in FIGS. 10A to 10H.
There was no statistically significant difference of the time of latency to fall off the rotarod between the USP 24 KO mice and the wild-type USP 24 mice, as shown in FIG. 10B. Mouse sera were collected from normal diet (ND) and high fat diet (HFD) mice with or without USP24-i treatment to perform the safety evaluation by ELISA assay. […] Therefore, USP24 inhibitor could inhibit the lipogenesis, thereby improving liver activity.

HFD mice [6] = assay: magnetic resonance imaging (MRI) of level and distribution of fat in HFD mice; details: MRI in vivo signal and collected kidney organs
From the text: The HFD mice with or without USP24-i-101 treatment according to the experimental flowchart of FIG. 12A were examined by magnetic resonance imaging (MRI) equipment to assess the level and distribution of fat inside them.

3T3-L1 cells = assay: differentiation of 3T3-L1 cells into adipocytes, Oil-Red-O staining; assay type: cell-based, mouse; details: 5 μM or 10 μM, MDIR induction, Oil-Red-O on days 8-10; dose-dependent; vs DMSO
Experimental: as §3
as §4, with “6C. […]” for “6C.”

[7] = HFD two months, then treatment one month, two times per week, i.p.

T1 sequence (Q9UPU5 whole entry, species assumed): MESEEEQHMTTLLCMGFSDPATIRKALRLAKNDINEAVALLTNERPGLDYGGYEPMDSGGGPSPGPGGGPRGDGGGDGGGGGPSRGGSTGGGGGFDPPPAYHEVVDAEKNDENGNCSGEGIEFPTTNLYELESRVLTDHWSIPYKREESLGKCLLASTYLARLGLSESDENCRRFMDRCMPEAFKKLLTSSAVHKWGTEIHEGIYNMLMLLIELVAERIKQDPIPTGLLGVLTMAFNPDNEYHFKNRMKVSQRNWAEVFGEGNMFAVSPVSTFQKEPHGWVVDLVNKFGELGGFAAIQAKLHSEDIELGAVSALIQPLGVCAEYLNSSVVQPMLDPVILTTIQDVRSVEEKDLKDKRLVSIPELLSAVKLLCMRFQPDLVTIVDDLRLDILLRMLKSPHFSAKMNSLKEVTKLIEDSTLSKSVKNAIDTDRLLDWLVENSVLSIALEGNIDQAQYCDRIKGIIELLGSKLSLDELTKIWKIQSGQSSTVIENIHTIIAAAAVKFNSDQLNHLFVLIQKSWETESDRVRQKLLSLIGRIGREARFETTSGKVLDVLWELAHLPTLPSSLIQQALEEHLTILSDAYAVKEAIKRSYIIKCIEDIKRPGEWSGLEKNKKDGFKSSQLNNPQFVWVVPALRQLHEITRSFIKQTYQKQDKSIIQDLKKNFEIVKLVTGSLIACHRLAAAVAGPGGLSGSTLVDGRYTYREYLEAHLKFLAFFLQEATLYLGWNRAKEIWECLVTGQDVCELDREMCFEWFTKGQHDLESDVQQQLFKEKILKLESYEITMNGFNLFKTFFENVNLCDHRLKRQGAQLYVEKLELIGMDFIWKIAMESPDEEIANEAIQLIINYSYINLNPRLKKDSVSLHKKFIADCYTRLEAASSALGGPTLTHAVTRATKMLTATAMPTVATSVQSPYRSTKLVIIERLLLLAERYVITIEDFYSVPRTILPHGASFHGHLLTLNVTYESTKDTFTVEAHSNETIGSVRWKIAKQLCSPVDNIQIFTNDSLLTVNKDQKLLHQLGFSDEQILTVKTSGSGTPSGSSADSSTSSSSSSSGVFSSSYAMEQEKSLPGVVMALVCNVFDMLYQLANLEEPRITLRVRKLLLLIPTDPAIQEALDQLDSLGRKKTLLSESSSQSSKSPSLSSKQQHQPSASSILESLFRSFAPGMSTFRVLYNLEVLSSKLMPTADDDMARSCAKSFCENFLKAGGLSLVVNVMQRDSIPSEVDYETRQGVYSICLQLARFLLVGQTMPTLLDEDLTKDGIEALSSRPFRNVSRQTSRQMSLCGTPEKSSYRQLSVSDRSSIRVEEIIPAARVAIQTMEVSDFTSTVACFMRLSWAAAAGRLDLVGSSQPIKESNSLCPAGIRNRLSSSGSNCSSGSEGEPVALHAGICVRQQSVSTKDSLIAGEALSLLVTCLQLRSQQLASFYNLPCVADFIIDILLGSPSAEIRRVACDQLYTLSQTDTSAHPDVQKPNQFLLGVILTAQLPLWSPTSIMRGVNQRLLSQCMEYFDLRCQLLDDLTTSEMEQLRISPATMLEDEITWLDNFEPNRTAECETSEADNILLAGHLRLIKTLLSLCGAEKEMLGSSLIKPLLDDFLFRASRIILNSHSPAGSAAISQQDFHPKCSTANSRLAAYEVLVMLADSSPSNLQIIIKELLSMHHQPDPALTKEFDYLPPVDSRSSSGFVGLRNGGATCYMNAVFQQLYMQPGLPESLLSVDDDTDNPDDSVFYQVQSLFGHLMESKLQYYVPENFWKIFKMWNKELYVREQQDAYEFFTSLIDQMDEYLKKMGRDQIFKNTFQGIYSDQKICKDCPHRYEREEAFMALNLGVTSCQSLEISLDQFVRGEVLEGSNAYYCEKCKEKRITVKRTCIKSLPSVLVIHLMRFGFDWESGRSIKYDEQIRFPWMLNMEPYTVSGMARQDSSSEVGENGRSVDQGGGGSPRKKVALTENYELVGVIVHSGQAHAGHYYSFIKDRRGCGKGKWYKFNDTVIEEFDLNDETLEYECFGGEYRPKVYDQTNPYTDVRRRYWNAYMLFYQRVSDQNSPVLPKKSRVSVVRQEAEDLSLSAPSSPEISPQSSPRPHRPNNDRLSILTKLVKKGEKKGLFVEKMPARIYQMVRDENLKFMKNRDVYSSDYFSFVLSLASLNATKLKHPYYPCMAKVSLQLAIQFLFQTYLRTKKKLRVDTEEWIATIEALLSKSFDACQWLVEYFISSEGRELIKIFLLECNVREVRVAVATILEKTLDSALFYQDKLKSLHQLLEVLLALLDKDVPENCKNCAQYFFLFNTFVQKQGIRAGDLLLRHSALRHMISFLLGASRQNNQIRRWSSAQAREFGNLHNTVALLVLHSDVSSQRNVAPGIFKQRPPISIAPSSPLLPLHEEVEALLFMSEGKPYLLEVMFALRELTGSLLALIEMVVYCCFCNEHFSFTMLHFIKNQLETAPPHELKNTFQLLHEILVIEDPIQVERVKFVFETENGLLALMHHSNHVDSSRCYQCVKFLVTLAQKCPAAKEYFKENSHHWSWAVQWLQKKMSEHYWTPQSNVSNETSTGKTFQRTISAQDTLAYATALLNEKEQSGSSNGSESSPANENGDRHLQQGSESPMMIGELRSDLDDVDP

SMILES: CN1CCN(CCCCN2c3ccccc3Sc3ccc(C(=O)c4ccccc4)cc32)CC1 [USP24-i1]
- USP24 catalytic activity (USP24 [1]): could block

- inhibition of USP24 activity (USP24 [4]): superior inhibition
SMILES: CN1CCN(CCN2c3ccccc3Sc3ccc(C(=O)c4ccccc4)cc32)CC1 [USP24-i-a]
- CREB (CREB): inhibited
- CREB phosphorylation (CREB): inhibited
- lipid droplets in liver (H&E) (USP24-WT mice; USP24-WT HFD mice, 2 months high-fat diet): few to no lipid droplets
- lipid droplets in liver (H&E) (USP24-WT mice; USP24-WT ND mice, 2 months normal diet): few to no lipid droplets
- size of epididymal WAT (eWAT) (HFD mice [2]; HFD mice): could be inhibited
- size of inguial WAT (iWAT) (HFD mice [2]; HFD mice): could be inhibited
- body weight (HFD mice [2]; [7]): significantly decreased
- fatty liver (HFD mice [2]; [7]): really decreased
- visceral fat (HFD mice [2]; [7]): really decreased
- expression level of C/EBPβ [3]: also reduced
- expression level of SREBP1 [3]: also reduced
- expression level of PLIN1 (Perilipin 1) ([3]; dose-dependent): reduced
- expression level of PPAR-γ ([3]; dose-dependent): reduced
- body weight (HFD mice [5]): could be inhibited
- fatty liver (HFD mice [5]): could be inhibited
- signals of Oil-Red-O staining in the liver (USP24-WT HFD mice): significantly reduced or nearly disappeared
- GOT (glutamic oxaloacetic transaminase) (HFD-mice): significantly inhibited
- GPT (glutamic pyruvic transaminase) (HFD-mice): significantly inhibited
- albumin (ALB) (HFD-mice): did not significantly change
- total cholesterol (HFD-mice): significantly inhibited
- total protein (TP) (HFD-mice): did not significantly change
- triglyceride (TG) (HFD-mice): did not significantly change
- signal of fat around subcutaneous and organs (HFD mice [6]): significantly inhibited
- lipid droplet accumulation (3T3-L1 cells): significant reversal
